In patent US20210277102A1, “COMPOSITIONS AND METHODS FOR TREATING A TUMOR SUPPRESSOR DEFICIENT CANCER” (BETH ISRAEL DEACONESS MEDICAL CENTER, INC., priority 2016, published 2021):

Test system: Pten^pc−/−; Pml^pc−/− prostate tumors
Experiment: In vivo CXCR2 antagonist treatment of Pten^pc−/−; Pml^pc−/− mice (MRI, flow cytometry)
Design: species or system mouse
Details: for tumor growth (tumor volume by MRI): Pml^pc−/− mice, 5 mg/kg intraperitoneal daily for 14 days, vs vehicle, 5 mg/kg
Method: Mice were allocated at random to experimental groups and studies were performed in an unblended manner. For treatment with the CXCR2 antagonist, SB225002 (Cayman Chemical #13336) was dissolved in DMSO (10 mg/ml) and diluted in vehicle (0.9% NaCl, 0.3% Tween 80) for in vivo administration. Mice (4 months of age) were treated daily for 10 days by intraperitoneal injection (5 mg/kg) and prostate tumor tissue (anterior lobes) was subjected to Flow Cytometry and histological analysis. For MRI analysis, mice (4 months of age) were treated daily for 21 days (Pten^pc-/-; Zbtb7a^pc-/-), for 14 days (Pten^pc-/-; Trp53^pc-/-) or for 14 days (Pten^pc-/-; Pml^pc-/-) by intraperitoneal injection (5 mg/kg). For depletion of Gr-1+/CD11b+ cells, Ly6G-depletion antibody (1A8, BioXcell) and control Rat IgG2a antibody (BioXcell) were diluted in phosphate-buffered saline (PBS) for in vivo administration. Mice (4 months of age) were treated every other day for 10 days by intraperitoneal injection (200-300 μg/mouse). InVivoMAb anti-mouse Ly6G/Ly6C (Gr-1) antibody, clone RB6-8C5 (BE0075, BioXcell), and control Rat IgG2b antibody (BE0090, BioXcell) were diluted in PBS and Pten^pc-/-; Trp53^pc-/- mice were treated every other day for 14 days by intraperitoneal injection (200 μg/mouse). For neutralization of CXCL5, anti-Mouse CXCL5 antibody (Leinco Technologies) and control Rat IgG2a antibody (BioXcell) were diluted in PBS and injected every other day for 21 days by intraperitoneal injection (20 μg/mouse). Tumor volume quantification was performed by using VivoQuant and Image J software. All mouse prostate MRI imaging analysis was performed at Small Animal Imaging Core at BIDMC and acquired on an […] Model M2 1T tabletop scanner. For Flow Cytometry, spleen and lymph node single cell suspensions were prepared by mashing the tissue in 2% FBS/PBS. […] All staining mixtures were analyzed on a BD LSR II flow cytometer (Becton Dickinson). Resulting profiles were further processed and analyzed using the FlowJo 8.7 software.

## O=C(Nc1ccc([N+](=O)[O-])cc1O)Nc1ccccc1Br [SB225002]
  tumor growth (tumor volume by MRI): did not show any significant response
Listed as CXCR2i
  tumor growth (tumor volume by MRI): did not respond
Pml^pc−/− prostate tumors after treatment
  intra-tumoral Gr-1+/CD11b+ cells (flow cytometry): decrease of Gr-1+/CD11b+ cells
